biological target: T1, Human thrombin (Homo sapiens, UniProt P00734); assay: Inhibition of the protease activity of thrombin (chromogenic substrate S-2238); format: biochemical; details: inhibition of the protease activity of thrombin
T1 construct: purchased Haematologic Technologies Inc

| IC50 [nM] | Structure (SMILES) |
| --- | --- |
| < 100 | O=C(c1ccccc1Cl)n1nc(-c2ccncc2)nc1NCc1ccccc1 [Cmpd 245, N-benzyl-1-[(2-chlorophenyl)carbonyl]-3-(pyridin-4-yl)-1H-1,2,4-triazol-5-amine] |
| 100 to 1000 | CCc1ccccc1C(=O)n1nc(-c2ccccn2)nc1NCc1ccccc1 [Cmpd 246, N-benzyl-1-[(2-ethylphenyl)carbonyl]-3-(pyridin-2-yl)-1H-1,2,4-triazol-5-amine] |
| < 100 | COc1ccc(C(=O)n2nc(-c3ccccn3)nc2NCc2ccccc2)c(F)c1 [Cmpd 248, N-benzyl-1-[(2-fluoro-4-methoxyphenyl)carbonyl]-3-(pyridin-2-yl)-1H-1,2,4-triazol-5-amine] |
| < 100 | COc1cc(C)ccc1C(=O)n1nc(-c2ccccn2)nc1NCc1ccccc1 [Cmpd 253, N-benzyl-1-[(2-methoxy-4-methylphenyl)carbonyl]-3-(pyridin-2-yl)-1H-1,2,4-triazol-5-amine] |
| < 100 | COc1ccccc1C(=O)n1nc(-c2cccnn2)nc1NCc1ccccc1 [Cmpd 254, N-benzyl-1-[(2-methoxyphenyl)carbonyl]-3-(pyridazin-3-yl)-1H-1,2,4-triazol-5-amine] |
| < 100 | COc1ccccc1C(=O)n1nc(-c2ccncc2)nc1NCc1ccccc1 [Cmpd 257, N-benzyl-1-[(2-methoxyphenyl)carbonyl]-3-(pyridin-4-yl)-1H-1,2,4-triazol-5-amine] |
| < 100 | COc1ccccc1C(=O)n1nc(-c2cccs2)nc1NCc1ccccc1 [Cmpd 258, N-benzyl-1-[(2-methoxyphenyl)carbonyl]-3-(thiophen-2-yl)-1H-1,2,4-triazol-5-amine] |
| < 100 | Cc1ccccc1C(=O)n1nc(-c2ccccn2)nc1NCc1ccccc1 [Cmpd 259, N-benzyl-1-[(2-methylphenyl)carbonyl]-3-(pyridin-2-yl)-1H-1,2,4-triazol-5-amine] |
| < 100 | COc1cccc(C(=O)n2nc(-c3ccccn3)nc2NCc2ccccc2)c1 [Cmpd 261, N-benzyl-1-[(3-methoxyphenyl)carbonyl]-3-(pyridin-2-yl)-1H-1,2,4-triazol-5-amine] |
| < 100 | O=C(c1ccc(Cl)cc1)n1nc(-c2ccncc2)nc1NCc1ccccc1 [Cmpd 263, N-benzyl-1-[(4-chlorophenyl)carbonyl]-3-(pyridin-4-yl)-1H-1,2,4-triazol-5-amine] |
| < 100 | COc1ccc(C(=O)n2nc(-c3ccccn3)nc2NCc2ccccc2)c(C)c1 [Cmpd 264, N-benzyl-1-[(4-methoxy-2-methylphenyl)carbonyl]-3-(pyridin-2-yl)-1H-1,2,4-triazol-5-amine] |
| < 100 | COc1ccc(C(=O)n2nc(-c3ccccn3)nc2NCc2ccccc2)cc1 [Cmpd 265, N-benzyl-1-[(4-methoxyphenyl)carbonyl]-3-(pyridin-2-yl)-1H-1,2,4-triazol-5-amine] |
| < 100 | O=C(c1ccco1)n1nc(-c2ccncc2)nc1NCc1ccccc1 [Cmpd 266, N-benzyl-1-[(furan-2-yl)carbonyl]-3-(pyridin-4-yl)-1H-1,2,4-triazol-5-amine] |
| < 100 | O=C(c1ccoc1)n1nc(-c2ccncc2)nc1NCc1ccccc1 [Cmpd 268, N-benzyl-1-[(furan-3-yl)carbonyl]-3-(pyridin-4-yl)-1H-1,2,4-triazol-5-amine] |
| > 1000 | CN(C)c1ccccc1C(=O)n1nc(-c2ccccn2)nc1NCc1ccccc1 [Cmpd 273, N-benzyl-1-[2-(dimethylamino)phenyl]carbonyl-3-(pyridin-2-yl)-1H-1,2,4-triazol-5-amine] |
| > 1000 | CC(C)c1ccccc1C(=O)n1nc(-c2ccccn2)nc1NCc1ccccc1 [Cmpd 275, N-benzyl-1-[2-(propan-2-yl)phenyl]carbonyl-3-(pyridin-2-yl)-1H-1,2,4-triazol-5-amine] |
| < 100 | COc1ccccc1C(=O)n1nc(-c2ccco2)nc1NCc1ccccc1 [Cmpd 280, N-benzyl-3-(furan-2-yl)-1-[(2-methoxyphenyl)carbonyl]-1H-1,2,4-triazol-5-amine] |
| < 100 | O=C(c1ccccc1OC(F)(F)F)n1nc(-c2ccccn2)nc1NCc1ccccc1 [Cmpd 285, N-benzyl-3-(pyridin-2-yl)-1-[2-(trifluoromethoxy)phenyl]carbonyl-1H-1,2,4-triazol-5-amine] |
| < 100 | O=C(c1cccs1)n1nc(-c2ccncc2)nc1NCc1ccccc1 [Cmpd 288, N-benzyl-3-(pyridin-4-yl)-1-[(thiophen-2-yl)carbonyl]-1H-1,2,4-triazol-5-amine] |
| < 100 | O=C(c1ccsc1)n1nc(-c2ccncc2)nc1NCc1ccccc1 [Cmpd 289, N-benzyl-3-(pyridin-4-yl)-1-[(thiophen-3-yl)carbonyl]-1H-1,2,4-triazol-5-amine] |

The remaining lines, values behind:

| Structure (SMILES) | IC50 [nM] |
| --- | --- |
| O=C(c1ccccc1Br)n1nc(-c2ccccn2)cc1NCc1ccccc1 [Cmpd 241, N-benzyl-1-[(2-bromophenyl)carbonyl]-3-(pyridin-2-yl)-1H-pyrazol-5-amine] | 100 to 1000 |
| O=C(c1ccccc1Cl)n1nc(-c2ccccc2F)cc1NCc1ccccc1 [Cmpd 242, N-benzyl-1-[(2-chlorophenyl)carbonyl]-3-(2-fluorophenyl)-1H-pyrazol-5-amine] | 100 to 1000 |
| O=C(c1ccccc1Cl)n1nc(-c2ccccn2)cc1NCc1ccccc1 [Cmpd 244, N-benzyl-1-[(2-chlorophenyl)carbonyl]-3-(pyridin-2-yl)-1H-pyrazol-5-amine] | 100 to 1000 |
| CCc1ccccc1C(=O)n1nc(-c2ccccn2)cc1NCc1ccccc1 [Cmpd 247, N-benzyl-1-[(2-ethylphenyl)carbonyl]-3-(pyridin-2-yl)-1H-pyrazol-5-amine] | > 1000 |
| Cc1ccc(C(=O)n2nc(-c3ccccn3)nc2NCc2ccccc2)c(F)c1 [Cmpd 249, N-benzyl-1-[(2-fluoro-4-methylphenyl)carbonyl]-3-(pyridin-2-yl)-1H-1,2,4-triazol-5-amine] | < 100 |
| O=C(c1ccccc1F)n1nc(-c2ccccn2)cc1NCc1ccccc1 [Cmpd 251, N-benzyl-1-[(2-fluorophenyl)carbonyl]-3-(pyridin-2-yl)-1H-pyrazol-5-amine] | < 100 |
| COc1ccccc1C(=O)n1nc(-c2ccccn2)cc1NCc1ccccc1 [Cmpd 256, N-benzyl-1-[(2-methoxyphenyl)carbonyl]-3-(pyridin-2-yl)-1H-pyrazol-5-amine] | 100 to 1000 |
| Cc1ccccc1C(=O)n1nc(-c2ccccn2)cc1NCc1ccccc1 [Cmpd 260, N-benzyl-1-[(2-methylphenyl)carbonyl]-3-(pyridin-2-yl)-1H-pyrazol-5-amine] | > 1000 |
| O=C(c1ccc(Cl)cc1)n1nc(-c2ccccn2)nc1NCc1ccccc1 [Cmpd 262, N-benzyl-1-[(4-chlorophenyl)carbonyl]-3-(pyridin-2-yl)-1H-1,2,4-triazol-5-amine] | < 100 |
| O=C(c1ccoc1)n1nc(-c2ccccn2)nc1NCc1ccccc1 [Cmpd 267, N-benzyl-1-[(furan-3-yl)carbonyl]-3-(pyridin-2-yl)-1H-1,2,4-triazol-5-amine] | < 100 |
| O=C(c1cccc2ccccc12)n1nc(-c2ccccn2)nc1NCc1ccccc1 [Cmpd 269, N-benzyl-1-[(naphthalen-1-yl)carbonyl]-3-(pyridin-2-yl)-1H-1,2,4-triazol-5-amine] | < 100 |
| O=C(c1cccc2ccccc12)n1nc(-c2ccccn2)cc1NCc1ccccc1 [Cmpd 270, N-benzyl-1-[(naphthalen-1-yl)carbonyl]-3-(pyridin-2-yl)-1H-pyrazol-5-amine] | > 1000 |
| O=C(c1ccc2ccccc2c1)n1nc(-c2ccccn2)nc1NCc1ccccc1 [Cmpd 271, N-benzyl-1-[(naphthalen-2-yl)carbonyl]-3-(pyridin-2-yl)-1H-1,2,4-triazol-5-amine] | 100 to 1000 |
| O=C(c1ccc2ccccc2c1)n1nc(-c2ccccn2)cc1NCc1ccccc1 [Cmpd 272, N-benzyl-1-[(naphthalen-2-yl)carbonyl]-3-(pyridin-2-yl)-1H-pyrazol-5-amine] | > 1000 |
| CC(C)c1ccccc1C(=O)n1nc(-c2ccccn2)cc1NCc1ccccc1 [Cmpd 276, N-benzyl-1-[2-(propan-2-yl)phenyl]carbonyl-3-(pyridin-2-yl)-1H-pyrazol-5-amine] | > 1000 |
| O=C(c1ccccc1F)n1nc(-c2ccccc2F)cc1NCc1ccccc1 [Cmpd 277, N-benzyl-3-(2-fluorophenyl)-1-[(2-fluorophenyl)carbonyl]-1H-pyrazol-5-amine] | 100 to 1000 |
| COc1ccccc1C(=O)n1nc(-c2ccccc2F)cc1NCc1ccccc1 [Cmpd 278, N-benzyl-3-(2-fluorophenyl)-1-[(2-methoxyphenyl)carbonyl]-1H-pyrazol-5-amine] | > 1000 |
| O=C(c1ccsc1)n1nc(-c2ccccc2F)cc1NCc1ccccc1 [Cmpd 279, N-benzyl-3-(2-fluorophenyl)-1-[(thiophen-3-yl)carbonyl]-1H-pyrazol-5-amine] | > 1000 |
| c1ccc(CNc2nc(-c3ccco3)n[nH]2)cc1 [Cmpd 281, N-benzyl-3-(furan-2-yl)-1H-1,2,4-triazol-5-amine] | > 1000 |
| O=C(c1cccs1)n1nc(-c2ccccn2)nc1NCc1ccccc1 [Cmpd 282, N-benzyl-3-(pyridin-2-yl)-1-[(thiophen-2-yl)carbonyl]-1H-1,2,4-triazol-5-amine] | < 100 |
| O=C(c1ccsc1)n1nc(-c2ccccn2)nc1NCc1ccccc1 [Cmpd 283, N-benzyl-3-(pyridin-2-yl)-1-[(thiophen-3-yl)carbonyl]-1H-1,2,4-triazol-5-amine] | < 100 |
| O=C(c1ccsc1)n1nc(-c2ccccn2)cc1NCc1ccccc1 [Cmpd 284, N-benzyl-3-(pyridin-2-yl)-1-[(thiophen-3-yl)carbonyl]-1H-pyrazol-5-amine] | < 100 |
| O=C(c1ccccc1C(F)(F)F)n1nc(-c2ccccn2)nc1NCc1ccccc1 [Cmpd 286, N-benzyl-3-(pyridin-2-yl)-1-[2-(trifluoromethyl)phenyl]carbonyl-1H-1,2,4-triazol-5-amine] | > 1000 |
| c1ccc(CNc2nc(-c3cccnc3)n[nH]2)cc1 [Cmpd 287, N-benzyl-3-(pyridin-3-yl)-1H-1,2,4-triazol-5-amine] | > 1000 |
| c1ccc(CNc2nc(-c3ccncc3)n[nH]2)cc1 [Cmpd 290, N-benzyl-3-(pyridin-4-yl)-1H-1,2,4-triazol-5-amine] | > 1000 |
